This passage reports viscosity results from the CheMixHub viscosity set.

“And” between values parts separate entries of the source, which are not always exact repeats. Identical values can stand only once. ± gives the uncertainty stated by the source.

In the case of `CC(=O)N(C(C)C)C(C)C`, the viscosity (commonly the resistance of a fluid to flow) (298.16 K, 101 kPa) is 2.18 ± 0.019 mPa·s.
Where the note is “298.15 K, 101 kPa”, `CCCCCCC(=O)O` registered a viscosity of 3.784 ± 0.098 mPa·s.
Take `CCCCCCCCCCCC(=O)OC`: the viscosity is 3.12 ± 0.066 mPa·s and 3.128 ± 0.13 mPa·s (293.15 K, 100 kPa); 2.778 ± 0.059 mPa·s (298.15 K, 100 kPa); 2.491 ± 0.053 mPa·s (303.15 K, 100 kPa); 2.25 ± 0.048 mPa·s (308.15 K, 100 kPa); 1.877 ± 0.13 mPa·s (318.15 K, 100 kPa); 1.712 ± 0.036 mPa·s and 1.717 ± 0.13 mPa·s (323.15 K, 100 kPa).
For the compound `CCCCCCCCCCCCBr`, the viscosity is 3.373 ± 0.086 mPa·s (298.08 K, 101 kPa); 3.024 ± 0.077 mPa·s (303.1 K, 101 kPa); 2.689 ± 0.069 mPa·s (308.11 K, 101 kPa); 2.437 ± 0.062 mPa·s (313.11 K, 101 kPa).
In the case of `CCCCCCCCn1cc[n+](C)c1.[Cl-]`, the viscosity is recorded as 4062 ± 1600 mPa·s (313.15 K, 101 kPa) and 2043 ± 660 mPa·s (323.15 K, 101 kPa).
On to `CCCCCC[N+](CC)(CC)CC.O=S(=O)([N-]S(=O)(=O)C(F)(F)F)C(F)(F)F`, for which the viscosity runs as follows: (293.15 K, 100 kPa) 241.4 ± 25 mPa·s; (313.15 K, 100 kPa) 80.71 ± 8.1 mPa·s.
With `CCCCCC[n+]1ccn(C)c1.O=S(=O)([O-])C(F)(F)F`, the viscosity (293.15 K, 100 kPa) is 194.9 ± 20 mPa·s; the viscosity (298.15 K, 100 kPa) is given as 150.8 ± 15 mPa·s; the viscosity (303.15 K, 100 kPa) amounted to 115.7 ± 12 mPa·s; the viscosity (308.15 K, 100 kPa) is 91.13 ± 9.2 mPa·s; the viscosity (313.15 K, 100 kPa) is reported as 74.03 ± 7.4 mPa·s.
For `CCOC(C)=O`, the viscosity (296 K, 101.3 kPa) turned out to be 0.437 ± 0.008 mPa·s; the viscosity (298 K, 101.3 kPa) is 0.439 ± 0.006 mPa·s and 0.439 ± 0.044 mPa·s; the viscosity (298.15 K, 100 kPa) is 0.42 ± 0.2 mPa·s and 0.42 ± 0.08 mPa·s; the viscosity (298.15 K, 101.3 kPa) is 0.4407 ± 0.0042 mPa·s (2×) and 0.439 ± 0.013 mPa·s; the viscosity (298.15 K, 101.33 kPa) is 0.457 ± 0.013 mPa·s and 0.424 ± 0.025 mPa·s and 0.424 ± 0.048 mPa·s; the viscosity (303.15 K, 101.3 kPa) was 0.4178 ± 0.0041 mPa·s and 0.4178 ± 0.004 mPa·s. For the same compound, the viscosity reads like this: (308.15 K, 101.3 kPa) 0.3972 ± 0.0039 mPa·s and 0.3972 ± 0.0038 mPa·s; (313.15 K, 101.3 kPa) 0.376 ± 0.0038 mPa·s and 0.376 ± 0.0037 mPa·s; (313.15 K, 101.32 kPa) 0.369 ± 0.01 mPa·s; (313.15 K, 101.33 kPa) 0.368 ± 0.006 mPa·s; (318 K, 101.3 kPa) 0.3829 ± 0.016 mPa·s; (318 K, 101.33 kPa) 0.3829 ± 0.039 mPa·s. The viscosity was 0.358 ± 0.0036 mPa·s (318.15 K, 101.3 kPa); 0.35 ± 0.006 mPa·s (318.15 K, 101.33 kPa); 0.3053 ± 0.0025 mPa·s (323.15 K, 100 kPa); 0.341 ± 0.008 mPa·s and 0.327 ± 0.02 mPa·s and 0.3356 ± 0.0091 mPa·s (323.15 K, 101 kPa); 0.3407 ± 0.0035 mPa·s and 0.3407 ± 0.0034 mPa·s (323.15 K, 101.3 kPa).
For `CCOc1ccccc1`, the viscosity (293.15 K, 101 kPa) was 1.222 ± 0.051 mPa·s and 1.27 ± 0.05 mPa·s; the viscosity (293.15 K, 101.3 kPa) amounted to 1.366 ± 0.042 mPa·s; the viscosity (293.15 K, 101.33 kPa) was determined as 1.231 ± 0.014 mPa·s; the viscosity (293.35 K, 101 kPa) came out at 1.24 ± 0.013 mPa·s; the viscosity (298 K, 101.33 kPa) is listed as 1.164 ± 0.025 mPa·s; the viscosity (302.75 K, 101 kPa) is reported as 1.03 ± 0.01 mPa·s. Besides, the viscosity reads like this: (303 K, 101.33 kPa) 1.068 ± 0.023 mPa·s; (303.15 K, 101 kPa) 1.038 ± 0.051 mPa·s and 1.05 ± 0.04 mPa·s; (303.15 K, 101.33 kPa) 1.036 ± 0.012 mPa·s; (308 K, 101.33 kPa) 0.983 ± 0.022 mPa·s; (308.15 K, 101 kPa) 0.978 ± 0.051 mPa·s; (308.15 K, 101.3 kPa) 0.9842 ± 0.034 mPa·s. Moreover, the viscosity was 0.901 ± 0.05 mPa·s and 0.875 ± 0.009 mPa·s (313.15 K, 101 kPa); 0.894 ± 0.01 mPa·s (313.15 K, 101.33 kPa); 0.839 ± 0.05 mPa·s (318.15 K, 101 kPa); 0.8284 ± 0.031 mPa·s (318.15 K, 101.3 kPa); 0.782 ± 0.05 mPa·s (323.15 K, 101 kPa).
In the case of `CC[NH+](CC)CC.O=S(=O)([O-])O`, the viscosity reads like this: (303.15 K, 101 kPa) 153 ± 3 mPa·s and 153 ± 3.2 mPa·s; (308.15 K, 101 kPa) 138 ± 3 mPa·s and 138 ± 2.9 mPa·s; (313.15 K, 101 kPa) 108 ± 2 mPa·s.
`COC(=O)CC(C)=O`: the viscosity reads like this: (298.15 K, 101.3 kPa) 1.566 ± 0.038 mPa·s and 1.564 ± 0.038 mPa·s and 1.564 ± 0.021 mPa·s; (303.15 K, 101.3 kPa) 1.422 ± 0.035 mPa·s and 1.421 ± 0.035 mPa·s and 1.421 ± 0.019 mPa·s; (308.15 K, 101.3 kPa) 1.298 ± 0.032 mPa·s and 1.298 ± 0.018 mPa·s.
Regarding `COCCOCC[n+]1ccn(CCC#N)c1.O=S(=O)([N-]S(=O)(=O)C(F)(F)F)C(F)(F)F`, the viscosity is, setting by setting: (293.15 K, 101.33 kPa) 296.5 ± 12 mPa·s; (303.15 K, 101.33 kPa) 169 ± 6 mPa·s; (313.15 K, 101.33 kPa) 103.2 ± 3.4 mPa·s; (323.15 K, 101.33 kPa) 74.62 ± 2.4 mPa·s.
Consider `COc1ccc(C=O)cc1`, for which the viscosity is, setting by setting: (303.15 K, 101 kPa) 3.251 ± 0.75 mPa·s and 3.578 ± 0.36 mPa·s and 3.251 ± 0.024 mPa·s; (308.15 K, 101 kPa) 3.131 ± 0.72 mPa·s and 3.035 ± 0.3 mPa·s and 3.131 ± 0.023 mPa·s; (313.15 K, 101 kPa) 2.961 ± 0.68 mPa·s and 2.649 ± 0.27 mPa·s and 2.961 ± 0.022 mPa·s; (318.15 K, 101 kPa) 2.682 ± 0.62 mPa·s and 2.34 ± 0.23 mPa·s and 2.682 ± 0.02 mPa·s.
Regarding `CS(=O)(=O)[O-].C[N+](C)(CCO)CCO`, the viscosity is, setting by setting: (298.15 K, 101.33 kPa) 1495 ± 180 mPa·s; (303.15 K, 101.33 kPa) 1021 ± 110 mPa·s; (308.15 K, 101.33 kPa) 716.3 ± 73 mPa·s; (313.15 K, 101.33 kPa) 513.1 ± 48 mPa·s; (318.15 K, 101.33 kPa) 377.6 ± 33 mPa·s; (323.15 K, 101.33 kPa) 282.4 ± 23 mPa·s.
As for `Clc1cccc(Cl)c1`, the viscosity by setting is: (298.15 K, 100 kPa) 1.017 ± 0.022 mPa·s; (303.15 K, 100 kPa) 0.945 ± 0.009 mPa·s; (303.15 K, 101 kPa) 0.949 ± 0.012 mPa·s and 0.945 ± 0.02 mPa·s; (308.15 K, 100 kPa) 0.895 ± 0.008 mPa·s and 0.906 ± 0.019 mPa·s; (308.15 K, 101 kPa) 0.895 ± 0.012 mPa·s and 0.895 ± 0.019 mPa·s; (313.15 K, 100 kPa) 0.849 ± 0.008 mPa·s. In addition, the viscosity (313.15 K, 101 kPa) worked out at 0.849 ± 0.018 mPa·s; the viscosity (318.15 K, 100 kPa) was 0.799 ± 0.008 mPa·s and 0.809 ± 0.017 mPa·s; the viscosity (318.15 K, 101 kPa) is 0.799 ± 0.017 mPa·s.
